# Test results: ChEMBL document CHEMBL4028852, “Design of a Chemical Probe for the Bromodomain and Plant Homeodomain Finger-Containing (BRPF) Family of Proteins” (J Med Chem, 2017)
# What was measured:
# Peregrin (Homo sapiens) = target: T1, Peregrin (Homo sapiens) (UniProt P55201)
# T1 sequence (whole entry): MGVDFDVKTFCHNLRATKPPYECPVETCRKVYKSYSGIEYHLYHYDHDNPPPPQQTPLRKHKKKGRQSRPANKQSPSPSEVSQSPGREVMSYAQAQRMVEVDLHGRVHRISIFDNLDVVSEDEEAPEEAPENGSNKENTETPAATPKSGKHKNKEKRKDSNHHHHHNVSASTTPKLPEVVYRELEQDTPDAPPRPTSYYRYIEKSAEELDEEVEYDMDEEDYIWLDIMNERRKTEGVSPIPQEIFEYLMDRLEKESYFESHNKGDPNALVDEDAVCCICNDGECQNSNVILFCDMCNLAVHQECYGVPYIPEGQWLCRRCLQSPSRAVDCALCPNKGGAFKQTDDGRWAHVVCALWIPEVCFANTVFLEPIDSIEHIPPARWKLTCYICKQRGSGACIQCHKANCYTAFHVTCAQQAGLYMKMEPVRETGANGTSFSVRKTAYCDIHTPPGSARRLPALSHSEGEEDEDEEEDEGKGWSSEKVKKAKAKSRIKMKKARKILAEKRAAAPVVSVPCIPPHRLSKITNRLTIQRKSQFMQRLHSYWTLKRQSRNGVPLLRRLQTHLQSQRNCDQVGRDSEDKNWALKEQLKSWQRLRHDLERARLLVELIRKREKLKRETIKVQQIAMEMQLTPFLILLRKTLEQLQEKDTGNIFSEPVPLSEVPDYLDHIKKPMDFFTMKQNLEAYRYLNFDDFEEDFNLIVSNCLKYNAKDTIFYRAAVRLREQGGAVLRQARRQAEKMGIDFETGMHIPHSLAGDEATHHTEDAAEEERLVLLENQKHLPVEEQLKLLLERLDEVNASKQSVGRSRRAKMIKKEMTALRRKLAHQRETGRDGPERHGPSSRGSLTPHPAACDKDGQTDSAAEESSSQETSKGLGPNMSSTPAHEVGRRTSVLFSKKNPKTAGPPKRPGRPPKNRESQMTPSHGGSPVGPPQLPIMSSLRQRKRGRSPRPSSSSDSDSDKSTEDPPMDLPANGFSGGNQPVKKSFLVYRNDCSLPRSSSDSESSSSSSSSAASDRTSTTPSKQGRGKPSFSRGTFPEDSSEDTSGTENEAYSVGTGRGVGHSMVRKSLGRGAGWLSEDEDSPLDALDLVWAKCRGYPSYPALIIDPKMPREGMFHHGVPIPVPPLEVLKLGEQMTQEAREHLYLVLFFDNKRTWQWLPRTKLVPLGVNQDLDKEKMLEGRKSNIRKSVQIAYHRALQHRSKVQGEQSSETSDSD
# Description: Binding affinity to BRPF1 (unknown origin) assessed as change in melting temperature at 10 uM by differential scanning fluorimetry based thermal shift assay
# Peregrin = target: T2, Peregrin (Homo sapiens, UniProt P55201); test: Inhibition of human BRPF1 (627 to 740 residues) expressed in Escherichia coli BL21 after 1 hr by BROMOscan assay
# T2 sequence (P55201 whole entry): T1 sequence (whole entry)
# [1] = target: T3, Bromodomain-containing protein 1 (Homo sapiens, UniProt O95696); test: Inhibition of human BRPF2 (556 to 688 residues) expressed in Escherichia coli BL21 after 1 hr by BROMOscan assay
# T3 sequence (O95696 whole entry): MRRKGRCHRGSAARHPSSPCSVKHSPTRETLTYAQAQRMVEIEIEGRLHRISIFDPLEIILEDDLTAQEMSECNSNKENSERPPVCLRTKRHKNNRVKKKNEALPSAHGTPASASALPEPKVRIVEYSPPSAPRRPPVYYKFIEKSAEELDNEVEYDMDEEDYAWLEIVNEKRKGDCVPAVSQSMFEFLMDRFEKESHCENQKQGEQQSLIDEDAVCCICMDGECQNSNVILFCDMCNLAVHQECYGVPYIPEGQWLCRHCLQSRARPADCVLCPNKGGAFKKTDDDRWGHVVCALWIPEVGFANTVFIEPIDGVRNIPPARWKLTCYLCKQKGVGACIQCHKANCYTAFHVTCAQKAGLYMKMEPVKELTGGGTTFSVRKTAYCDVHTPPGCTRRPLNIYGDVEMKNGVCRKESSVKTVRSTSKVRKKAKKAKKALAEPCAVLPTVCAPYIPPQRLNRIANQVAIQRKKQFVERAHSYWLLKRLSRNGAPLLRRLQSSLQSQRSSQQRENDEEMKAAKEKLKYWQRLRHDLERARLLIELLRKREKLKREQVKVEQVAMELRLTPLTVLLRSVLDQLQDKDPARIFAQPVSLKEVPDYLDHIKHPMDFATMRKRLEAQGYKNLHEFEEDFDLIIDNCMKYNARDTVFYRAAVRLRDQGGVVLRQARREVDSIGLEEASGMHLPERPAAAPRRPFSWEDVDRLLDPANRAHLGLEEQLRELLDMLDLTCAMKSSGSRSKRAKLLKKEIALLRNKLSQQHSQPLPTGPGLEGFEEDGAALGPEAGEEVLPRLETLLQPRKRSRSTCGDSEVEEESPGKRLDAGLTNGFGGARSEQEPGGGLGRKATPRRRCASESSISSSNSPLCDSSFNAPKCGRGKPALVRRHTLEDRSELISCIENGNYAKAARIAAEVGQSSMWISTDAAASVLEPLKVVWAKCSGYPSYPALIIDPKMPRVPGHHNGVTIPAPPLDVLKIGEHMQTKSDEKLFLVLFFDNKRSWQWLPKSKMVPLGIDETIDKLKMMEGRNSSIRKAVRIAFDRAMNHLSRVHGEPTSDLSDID
# [2] = target: T4, Bromodomain and PHD finger-containing protein 3 (Homo sapiens, UniProt Q9ULD4); test: Inhibition of human BRPF3 (588 to 701 residues) expressed in Escherichia coli BL21 after 1 hr by BROMOscan assay
# T4 sequence (Q9ULD4 whole entry): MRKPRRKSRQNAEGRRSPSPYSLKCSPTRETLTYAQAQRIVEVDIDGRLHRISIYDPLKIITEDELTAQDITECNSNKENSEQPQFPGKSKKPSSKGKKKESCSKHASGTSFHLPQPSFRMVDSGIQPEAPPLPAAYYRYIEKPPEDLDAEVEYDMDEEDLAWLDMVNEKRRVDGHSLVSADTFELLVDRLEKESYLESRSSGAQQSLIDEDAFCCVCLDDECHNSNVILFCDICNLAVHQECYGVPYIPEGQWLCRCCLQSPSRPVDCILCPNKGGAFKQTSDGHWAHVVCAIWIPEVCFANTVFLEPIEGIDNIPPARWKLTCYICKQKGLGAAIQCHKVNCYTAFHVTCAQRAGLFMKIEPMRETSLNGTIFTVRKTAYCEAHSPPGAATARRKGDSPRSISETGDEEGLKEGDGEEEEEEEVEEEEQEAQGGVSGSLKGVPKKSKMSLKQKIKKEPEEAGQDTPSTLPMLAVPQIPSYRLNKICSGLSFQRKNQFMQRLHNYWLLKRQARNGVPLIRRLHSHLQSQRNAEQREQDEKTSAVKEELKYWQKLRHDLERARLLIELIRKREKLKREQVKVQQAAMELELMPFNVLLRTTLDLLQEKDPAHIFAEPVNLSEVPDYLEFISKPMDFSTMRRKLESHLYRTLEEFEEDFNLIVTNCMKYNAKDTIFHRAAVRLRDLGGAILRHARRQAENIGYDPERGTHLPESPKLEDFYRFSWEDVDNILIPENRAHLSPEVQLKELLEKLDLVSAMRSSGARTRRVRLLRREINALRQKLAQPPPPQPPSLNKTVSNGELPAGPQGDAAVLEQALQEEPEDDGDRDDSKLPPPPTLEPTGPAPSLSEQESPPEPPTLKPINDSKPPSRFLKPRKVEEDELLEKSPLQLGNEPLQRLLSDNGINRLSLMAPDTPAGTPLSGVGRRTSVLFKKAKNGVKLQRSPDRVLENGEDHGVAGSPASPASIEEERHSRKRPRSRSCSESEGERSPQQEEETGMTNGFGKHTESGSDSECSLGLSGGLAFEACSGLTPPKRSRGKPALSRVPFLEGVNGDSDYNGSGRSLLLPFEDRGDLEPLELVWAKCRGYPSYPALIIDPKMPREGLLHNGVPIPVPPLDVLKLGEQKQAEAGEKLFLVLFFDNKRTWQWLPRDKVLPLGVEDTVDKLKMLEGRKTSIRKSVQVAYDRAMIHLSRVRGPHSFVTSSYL
# [3] = target: T5, Bromodomain-containing protein 9 (Homo sapiens, UniProt Q9H8M2)
# T5 sequence (Q9H8M2 whole entry): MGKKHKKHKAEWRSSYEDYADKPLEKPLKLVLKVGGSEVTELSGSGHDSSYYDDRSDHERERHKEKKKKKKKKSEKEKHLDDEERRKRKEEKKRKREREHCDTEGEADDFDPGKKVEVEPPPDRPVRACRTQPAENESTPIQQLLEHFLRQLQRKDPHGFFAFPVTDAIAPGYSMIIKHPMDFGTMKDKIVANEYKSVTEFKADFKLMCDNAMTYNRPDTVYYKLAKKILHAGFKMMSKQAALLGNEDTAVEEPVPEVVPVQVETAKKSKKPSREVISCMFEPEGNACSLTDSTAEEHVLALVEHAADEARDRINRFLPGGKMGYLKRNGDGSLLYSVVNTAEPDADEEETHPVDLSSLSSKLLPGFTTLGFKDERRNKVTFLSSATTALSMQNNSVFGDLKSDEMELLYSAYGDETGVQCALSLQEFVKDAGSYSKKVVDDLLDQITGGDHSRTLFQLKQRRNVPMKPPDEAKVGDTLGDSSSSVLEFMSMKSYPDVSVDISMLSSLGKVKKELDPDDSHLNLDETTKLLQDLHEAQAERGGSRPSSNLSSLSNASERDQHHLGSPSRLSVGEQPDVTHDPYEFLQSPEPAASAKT
# Description: Inhibition of human BRD9 (130 to 259 residues) expressed in Escherichia coli BL21 after 1 hr by BROMOscan assay
# [4] = target: Bromodomain-containing protein 4 (Homo sapiens, UniProt O60885); test: Inhibition of human BRD4 isoform long bromodomain 1 (44 to 168 residues) expressed in Escherichia coli BL21 after 1 hr by BROMOscan assay
# [5] = Inhibition of cell proliferation of human HRA19 cells after 72 hrs by MTS assay; type: functional; conditions: HRA19, 72 h
# DMS-114 = test: Inhibition of cell proliferation of human DMS114 cells after 72 hrs by MTS assay; type: functional; conditions: DMS-114, 72 h
# [6] = Inhibition of cell proliferation of human RERF-LC-Sq1 cells after 72 hrs by MTS assay; type: functional; conditions: RERF-LC-Sq1, 72 h
# NCI-H1703 = test: Inhibition of cell proliferation of human NCI-H1703 cells after 72 hrs by MTS assay; type: functional; conditions: NCI-H1703, 72 h
SMILES,ΔTm (Peregrin (Homo sapiens)) [°C],further results
COc1cc(C#N)ccc1S(=O)(=O)N(C)c1ccc2c(c1)cc(C)c(=O)n2C,7.1,
CC(C)c1cc2cc(NS(=O)(=O)c3ccc(C#N)cc3)ccc2n(C)c1=O,,IC50 (Peregrin): 870 nM; IC50 [1]: 14000 nM; IC50 [2]: 16000 nM
COc1cc(C#N)ccc1S(=O)(=O)N(c1ccc2c(c1)cc(C)c(=O)n2C)C(C)C,,IC50 (Peregrin): 160 nM
COc1cc2c(ccc(=O)n2C)cc1N(C)S(=O)(=O)c1ccc(C#N)cc1,,IC50 (Peregrin): 1000 nM
CCc1cc2cc(NS(=O)(=O)c3ccc(C#N)cc3OC)ccc2n(CC)c1=O,,IC50 (Peregrin): 250 nM; IC50 [1]: 4400 nM; IC50 [2]: 4600 nM
CCN(c1ccc2c(c1)cc(C)c(=O)n2C)S(=O)(=O)c1ccc(C#N)cc1OC,,IC50 (Peregrin): 110 nM
Cc1cc(=O)n(C)c2ccc(NS(=O)(=O)c3ccc(C#N)cc3)cc12,4.3,
COc1cc2c(cc1NS(=O)(=O)c1ccc(C#N)cc1OC)cc(C)c(=O)n2C,12.7,IC50 [4]: 1700 nM
COc1cc2c(cc1NS(=O)(=O)c1ccccc1)cc(C)c(=O)n2C,9.4,
COc1cc(C#N)ccc1S(=O)(=O)Nc1cc(F)c2c(c1)cc(C)c(=O)n2C,6.8,IC50 (Peregrin): 12 nM; IC50 [1]: 510 nM; IC50 [2]: 10000 nM
CCc1cc2cc(NS(=O)(=O)c3ccc(C#N)cc3)ccc2n(C)c1=O,5.6,
COc1cc2c(cc1NS(=O)(=O)c1ccc(C#N)cc1)cc(C)c(=O)n2C,8.8,
CCc1cc2cc(NS(=O)(=O)c3ccc(C#N)cc3)ccc2n(CC)c1=O,,IC50 [4]: > 100000 nM
CCc1cc2cc(NS(=O)(=O)c3ccc(C#N)cc3OC)ccc2n(C)c1=O,8,IC50 (Peregrin): 93 nM
Cn1c(=O)ccc2cc(NS(=O)(=O)C3CC3)ccc21,1.9,
COc1cc2c(ccc(=O)n2C)cc1NS(=O)(=O)c1ccc(C#N)cc1,5.6,IC50 [4]: > 10000 nM
Cn1c(=O)ccc2cc(NS(=O)(=O)C3CCCCC3)ccc21,3.9,

# More lines, main results first:
ΔTm (Peregrin (Homo sapiens)) [°C],SMILES,further results
5.3,Cn1c(=O)ccc2cc(NS(=O)(=O)c3ccccc3)ccc21,IC50 [3]: 2200 nM
4.4,Cn1c(=O)ccc2cc(NS(=O)(=O)c3cccc(C#N)c3)ccc21,
2.4,Cn1c(=O)ccc2cc(NS(=O)(=O)c3ccccc3C#N)ccc21,
5.2,Cn1c(=O)ccc2cc(NS(=O)(=O)c3ccc(C#N)cc3)ccc21,
2.2,CC(C)S(=O)(=O)Nc1ccc2c(ccc(=O)n2C)c1,
10.2,COc1ccccc1S(=O)(=O)Nc1ccc2c(c1)cc(C)c(=O)n2C,
3.1,Cn1c(=O)ccc2cc(S(=O)(=O)Nc3ccc(C#N)cc3)ccc21,IC50 [2]: 2200 nM
1.8,CN(c1ccc2c(ccc(=O)n2C)c1)S(=O)(=O)c1ccc(C#N)cc1,
6.3,COc1cc2c(ccc(=O)n2C)cc1NS(=O)(=O)c1ccccc1,
1.8,CCS(=O)(=O)Nc1ccc2c(ccc(=O)n2C)c1,
1.4,Cn1c(=O)ccc2cc(NS(C)(=O)=O)ccc21,
9.7,Cc1cc2cc(NS(=O)(=O)c3ccc(C#N)cc3)ccc2n(C)c1=O,GI50 [5]: 15600 nM; GI50 (DMS-114): 16600 nM; GI50 [6]: 17100 nM; GI50 (NCI-H1703): > 30000 nM
